Source: article PMC6910946, “Multiple roles of Bet v 1 ligands in allergen stabilization and modulation of endosomal protease activity” (Allergy, 2019)

What was measured:
[1] = test system: human monocyte‐derived dendritic cells (moDCs); test: Activation and cytokine secretion of human moDCs; format: cell-based; conditions: Bet v 1 in complex with ligand, 24 h, no LPS co-stimulation
Experimental: (§1) The ability of ligand‐loaded Bet_v_1 to induce IgE‐antigen cross‐linking and basophil degranulation was assessed by mediator‐release assays using rat basophil (RBL‐2H3) cells, transfected with the human high‐affinity IgE receptor (FcεRI), as previously described.2, 24 In vitro uptake of labeled Bet_v_1 was performed using CD11c^+ murine bone marrow–derived dendritic cells (BMDCs). The maturation of human monocyte‐derived dendritic cells (moDCs) was analyzed as previously described.2 T‐cell proliferation assays using CD4^+ T‐cell hybridomas were performed as previously described.17 A detailed description of the in vitro assays is available (Appendix [Link], [Link]).
Immature moDCs from PBMCs of either healthy/non-atopic donors (n=5) or atopic patients (n=7) were isolated and cultured as described elsewhere.^6 Cell viability using the Aqua® dye (Invitrogen, Carlsbad, CA, USA), expression of CD1a (eBioscience, Inc., San Diego, CA, USA) and loss of CD14 (BD Biosciences) expression were analyzed by flow cytometry on a Navios flow cytometer (Beckman Coulter, Brea, CA, USA). Cells (1x10^6 cells/ml) were stimulated for 24 hours with 1 µg/ml of Bet v 1 either alone or in complex with one of the three ligands (DOC, PPE1 or Q3OS). As a control, unstimulated moDCs and the individual ligands without Bet v 1 were used at the same concentrations. The cell supernatant was frozen for the analysis of cytokine secretion. Of note, no LPS co-stimulation was induced. The following maturation markers were investigated: CD40 (eBioscience), HLA-DR, CD80, CD83 and CD86 (BD Biosciences). Cytokine expression of CCL17, IL-1β, IL-10 (BD Biosciences), TNFα and IL-6 (eBioscience) was determined by ELISA. Statistical analysis was performed using one-way ANOVA with a Bonferroni post-test to compare all groups. The study was approved by the ethics committee of the medical faculty of Technical University of Munich (54/17 S).

Bet_v_1 = molecular target: T1, Bet_v_1 (Betula pendula, UniProt P15494); test: Thermal stability of Bet v 1 by FTIR spectroscopy; format: physicochemical, Betula verrucosa; conditions: for ΔFTIR: change of Tm of Bet v 1 versus no ligand; for T m FTIR: melting point of Bet v 1 with or without ligand
T1 construct: made in house
T1 sequence (P15494 1-160): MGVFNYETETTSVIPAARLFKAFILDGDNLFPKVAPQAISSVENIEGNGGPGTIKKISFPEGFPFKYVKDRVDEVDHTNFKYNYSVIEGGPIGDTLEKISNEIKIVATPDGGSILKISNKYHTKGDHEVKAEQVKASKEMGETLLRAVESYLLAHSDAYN
Text: Surface acoustic wave (SAW) technology and NMR spectroscopy were used to observe the interaction of Bet_v_1 with the selected compounds, including determination of the dissociation constant (K d). The influence of ligand binding on the secondary structure elements and the thermal stability of Bet_v_1 was monitored using circular dichroism (CD, JASCO J‐815 spectropolarimeter, Jasco) and Fourier transform infrared (FTIR) spectroscopy (Tensor II FTIR system, Bruker Optics Inc). A detailed description of these methods is available (Appendix [Link], [Link]). […]
Determination of secondary structure elements and thermal stability
The influence of ligand binding on the secondary structure elements and the thermal stability of Bet v 1 was addressed by circular dichroism (CD) and Fourier transform infrared (FTIR) spectroscopy. CD spectroscopy was performed with a JASCO J-815 spectropolarimeter fitted with a PTC-423S Peltier-type single position cell holder (Jasco, Tokyo, Japan) over the wavelength range 190 to 260 nm. For measurement, Bet v 1 with and without ligand was diluted in a 10 mM potassium phosphate buffer to a concentration of 0.1 mg/ml. The thermal stability analysis was recorded at 222 nm. The protein was denatured with a temperature slope of 1° C/min from 20 to 95° C.
FTIR amide 1 and amide 2 spectra of Bet v 1 at concentrations of 1.0-2.0 mg/ml with and without ligand were recorded with an AquaSpec transmission cell adapted to a Tensor II FTIR system (Bruker Optics Inc., Billerica, MA, USA). Measurement was performed at a constant temperature (25° C), controlled by a Haake F8 thermostat (Thermo Electron, Germany) with internal temperature control. For data analysis, OPUS spectroscopy software 6.0 (Bruker Optics Inc., Billerica, MA, USA) was used. The Savitzky-Golay algorithm was applied on […]
vector-normalized amide 1 spectra (25 smoothing points) to obtain the second derivative. For the quantification of secondary structure elements, a Quant2 method of the OPUS software was used. For thermal stability analysis, spectra were recorded with a BioATR II unit (Bruker Optics Inc., Billerica, MA, USA) at 25 to 95° C (dT=2.5K). The determined relative signal change in the amide I band by creating a difference spectrum for each temperature point was used to calculate the melting point (Tm). […]

[2] = test system: CD11c+ murine bone marrow–derived dendritic cells (BMDCs); test: In vitro antigen uptake of labeled Bet v 1 by BMDCs; format: cell-based, mouse; conditions: Bet v 1 with or without ligand; 1, 6, 24 h; FACS
Experimental: as §1
BMDCs from C57BL/6 mouse bone marrow were isolated as described previously.^5 cultured in BMDC medium (RPMI 1640, 5% fetal calf serum, 2 mM L-glutamine, 1% penicillin-streptomycin, 20% granulocyte-macrophage colony-stimulating factor supernatant and 200 µM β-mercaptoethanol) (BMDC medium) for 10 days, and stored frozen in liquid nitrogen. BMDCs were treated over a certain period of time (24, 6 or 1 hours) with 0.5 µg of Bet v 1 per 2x10^5 cells. Bet v 1 was labeled with pHrodo™ Red succinimidyl ester (Thermo Fisher Scientific, Waltham, MA, USA) and pre-incubated with one of the ligands (DOC, Q3OS or PPE1). CD11c^+ cells were analyzed via flow cytometry (allophycocyanin-conjugated anti-mouse CD11c antibody, clone N418; eBioscience, Inc., San Diego, CA, USA) on a FACSCanto II instrument (BD Biosciences, San Jose, CA, USA). For the live/dead staining a fixable viability stain 450 (BD Biosciences) was used. Granulocytes and monocytes were excluded via the V450 Rat anti-Mouse LY-6G and LY-6C (BD Biosciences) antibody. Data were recorded and analyzed using the BD FACSDiva software (BD Biosciences). Statistical analysis was performed using ANOVA with a Bonferroni post-test to compare all groups. The data represent the mean of duplicate experiments and are derived from at least 2 independent experiments.

O=c1c(O[C@@H]2O[C@H](CO)[C@@H](O)[C@H](O)[C@H]2O[C@@H]2O[C@H](CO)[C@@H](O)[C@H](O)[C@H]2O)c(-c2ccc(O)c(O)c2)oc2cc(O)cc(O)c12 [Q3OS, quercetin 3‐O‐sophoroside]
maturation marker expression and Th polarization‐associated cytokines [1]: None of the above described readouts was influenced
ΔFTIR (Bet_v_1): +1.88 °C
T m FTIR (Bet_v_1): 65.26 °C
antigen uptake of pHrodo Red‐labeled Bet v 1 [2]: None of the above described readouts was influenced

C[C@H](CCC(=O)O)[C@H]1CC[C@H]2[C@@H]3CC[C@@H]4C[C@H](O)CC[C@]4(C)[C@H]3C[C@H](O)[C@]12C [DOC, sodium deoxycholate, reference compound]
maturation marker expression and Th polarization‐associated cytokines [1]: None of the above described readouts was influenced
ΔFTIR (Bet_v_1): +3.22 °C
T m FTIR (Bet_v_1): 66.6 °C
antigen uptake of pHrodo Red‐labeled Bet v 1 [2]: None of the above described readouts was influenced

CCC1C(=O)CC(O)C1/C=C/C(O)CCCCCCCC(=O)O (stereo not drawn) [PPE1, E1 phytoprostanes]
maturation marker expression and Th polarization‐associated cytokines [1]: None of the above described readouts was influenced
ΔFTIR (Bet_v_1): +5.93 °C
T m FTIR (Bet_v_1): 69.31 °C
antigen uptake of pHrodo Red‐labeled Bet v 1 [2]: None of the above described readouts was influenced
